pEC50: −log10 of the molar value. Values belong to the molecule of their own block, whether it stands above or below them.
Assays:
[1] = tested on: NASH model; test: In vivo efficacy test: NASH model in mice by high-fat diet feeding and CCl4 induction; parameters: species or system C57/BL6 mice; settings: intragastric once a day for 28 days; for gene expression of collagen-alpha in the liver: FIG. 3; for total cholesterol (TC) and triglyceride (TG) levels in the liver: FIG. 2
Excerpt: In this test, NASH model was established on mice by two procedures of high-fat diet feeding and CCl4 induction to test the effects of compounds on treating NASH. Briefly, the modeling process includes feeding C57/BL6 mice with high-fat diet to induce obesity in mice and produce non-alcoholic fatty liver disease; selecting 40 obese mice with a body weight >35 g when >80% of mice reached 35 g or more, continuously feeding with high-fat diet while intraperitoneal injection of CCl4 twice a week for four weeks; as for 10 normal animals in the same batch, feeding intraperitoneally with olive oil as a healthy control. The day when CCl4 feeding was started was set to the 0th day, and the time when CCl4 feeding was started was set to 0th hour. On the day when CCl4 feeding was started, the intragastric administration was started, 5 mL/kg once a day for 4 weeks, namely 28 days. Test doses of the compound were 15 mg/kg, 30 mg/kg, 60 mg/kg, respectively; healthy control and vehicle control were given vehicle 1% hydroxypropyl methylcellulose (HPMC). During the whole experiment period, the animals were weighed and their health was monitored every day. If there are special circumstances, the relevant project leader should be notified in time and the corresponding records should be made. On the 28th day, after all the animals were weighed, they were euthanized after narcotizing and blood collecting, and the liver was taken. After the blood sample was processed into serum, ALT/AST/TG/TC were tested; for parts of the liver samples, liver TG and TC and the relative expression of collagen-1 alpha gene were tested, and for the other part, liver samples was taken for pathological analysis.

[2] = molecular target: T1, glutathione-S-transferase-labeled FXR human protein (Homo sapiens, UniProt Q96RI1); test: FXR biochemical experiment (alphascreen, coactivator recruitment); settings: for pEC50: alphascreen, activation of FXR binding reaction with steroid receptor coactivator, read-out: FXR enzyme activity EC50; for Emax: highest signal relative to reference compound obeticholic acid (Examples 31-47), read-out: FXR enzyme activity Efficacy (activation efficacy percent)
T1 construct: purchased Invitrogen
T1 sequence (Q96RI1 1-486): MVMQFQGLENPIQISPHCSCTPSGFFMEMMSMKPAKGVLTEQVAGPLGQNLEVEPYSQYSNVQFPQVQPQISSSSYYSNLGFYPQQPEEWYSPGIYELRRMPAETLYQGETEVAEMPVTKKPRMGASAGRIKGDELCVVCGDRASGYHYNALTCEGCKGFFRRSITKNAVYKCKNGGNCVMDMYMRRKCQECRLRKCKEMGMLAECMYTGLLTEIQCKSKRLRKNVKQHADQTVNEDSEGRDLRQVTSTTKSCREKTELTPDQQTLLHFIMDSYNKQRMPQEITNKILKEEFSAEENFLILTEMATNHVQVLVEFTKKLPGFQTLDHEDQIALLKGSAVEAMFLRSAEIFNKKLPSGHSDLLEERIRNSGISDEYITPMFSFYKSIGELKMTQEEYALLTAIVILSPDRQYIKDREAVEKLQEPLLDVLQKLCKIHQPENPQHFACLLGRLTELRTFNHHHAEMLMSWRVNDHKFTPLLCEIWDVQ
Method: FXR Biochemical Experiment
To test the effect of the compound on the activation of the FXR binding reaction by a Homogenous Proximity Luminescent Amplified Assay (alphascreen).
1. Protein: glutathione-S-transferase-labeled FXR human protein (Invitrogen)
2. Coactivator: biotin-labeled steroid receptor coactivator (Anaspec)
3. Detection reagent: Homogenous Proximity Luminescent Amplified Assay (alphascreen) detection kit (PerkinElmer)
1. Dilution of compounds: The test compound was prepared as a 40 μM DMSO solution, which was then diluted 3-fold to 10 concentration points. The reference compound was prepared as a 400 μM DMSO solution, and then was 1.5-fold diluted to 10 concentration points. The diluted DMSO solution was added to the micro-wells of a 384-well plate at a volume of 150 nl per well.
2. Glutathione-S-transferase-labeled FXR human protein and biotin-labeled steroid receptor coactivator were prepared to a mixed solution at a concentration of 0.4 nM and 30 nM, respectively. The mixed solution was added to the micro-wells of the 384-well plate at a volume of 15 μL per well, and incubated for 1 hour at room temperature.
3. […] The experiment process was protected from light. It was incubated for 1 hour at room temperature.
4. […] The experiment process was protected from light. It was incubated for 1 hour at room temperature.
5. EC50 test: Envision was used to excite at 680 nm and the […] signal at 520-620 nm was read.
6. Data analysis: Data analysis was conducted using Prism 5.0 to calculate the EC50 value of the activation effect of the compound.

Compound: O=C(O)c1cnc(N2C(=O)CCc3cc(OCc4c(-c5c(Cl)cccc5Cl)noc4C4CC4)ccc32)c(Cl)c1 [Compound 37]
blood biochemical ALT/AST indicators ([1]; 15 mg/kg, FIG. 1): significant decrease | gene expression of collagen-alpha in the liver ([1]; 15 mg/kg): significant decrease | nonalcoholic fatty liver score NAFLD (overall evaluation, pathological tissue analysis) ([1]; 15 mg/kg, FIG. 5): significant reduction | total cholesterol (TC) and triglyceride (TG) levels in the liver ([1]; 30 mg/kg): significant decrease | total cholesterol (TC) and triglyceride (TG) levels in the liver ([1]; 60 mg/kg): significant decrease | gene expression of collagen-alpha in the liver ([1]; 60 mg/kg): significant decrease | liver fibrosis (pathological tissue analysis) ([1]; 60 mg/kg, FIG. 4): significant reduction | nonalcoholic fatty liver score NAFLD (overall evaluation, pathological tissue analysis) ([1]; 60 mg/kg, FIG. 5): significant reduction | single steatosis, inflammatory molecules and ballooning change ([1]; 60 mg/kg, FIG. 5): remarkable efficacy

Compound: COc1cc(C(=O)O)ccc1N1C(=O)CCc2cc(OCc3c(-c4c(Cl)cccc4Cl)noc3C3CC3)ccc21 [Compound 44]
pEC50 [2]: 7.24 | Emax [2]: 117%

Compound: O=C(O)c1csc(N2C(=O)CCc3cc(OCc4c(-c5c(Cl)cccc5Cl)noc4C4CC4)ccc32)c1 [Compound 45]
pEC50 [2]: 6.97 | Emax [2]: 117%

More lines, now with the values ahead:

pEC50 [2]: 7.08 | Emax [2]: 126%
Compound: O=C(O)c1ccc(N2C(=O)CCc3cc(OCc4c(-c5c(Cl)cccc5Cl)noc4C4CC4)ccc32)s1 [Compound 46]

pEC50 [2]: 7.70 | Emax [2]: 153%
Compound: O=C(O)c1ccc(N2C(=O)CCc3cc(OCc4c(-c5c(Cl)cccc5Cl)noc4C4CC4)ccc32)cc1O [Compound 47]

From patent publication US11339147B2, “Lactam compound as FXR receptor agonist” (CSPC ZHONGQI PHARMACEUTICAL TECHNOLOGY (SHIJIAZHUANG) CO., …, priority 2017, dated 2022)
